In US10653780B2, “Amino lipids and methods for the delivery of nucleic acids” (ARBUTUS BIOPHARMA CORPORATION, priority 2008, dated 2020):
Where “and” joins values, the source holds several entries; their conditions need not be identical. Identical values can stand only once. Like-named read-outs stand apart in the source and are kept apart here.

What was measured:
[1] = test system: Factor VII (FVII); test: In vivo FVII activity of nucleic acid-lipid formulations in rats; parameters: species or system SD rats; conditions: PEG-C-DOMG as PEG-lipid
Protocol: The ability of various nucleic acid-lipid formulations comprising different cationic lipids was further explored in mice and rats. Each of the tested nucleic acid-lipid formulations was prepared as described above using PEG-C-DOMG as the PEG-lipid. The formulations initially tested (which included either DLin-K-DMA, DLin-K-MPZ, DLin-K-C2-DMA, or DLin-K-C4-DMA) reduced residual FVII levels in both mice (FIG. 3) and rats (FIG. 4). […] The activity of the DLin-K-C2-DMA formulation was approximately 2-3-fold greater than the DLin-K-DMA formulation in mice, and approximately 10-20-fold greater than the DLin-K-DMA formulation in rats. A comparison of FVII reduction in mice and rats using the DLin-K-DMA formulation or the DLin-K-C2-DMA formulation is shown in FIG. 5.

[2] = Bilayer-to-hexagonal HII transition temperature (TBH) in equimolar mixtures with DSPS; assay type: physicochemical
Excerpt: Both techniques gave similar results.

[3] = In situ determination of apparent pKa using TNS fluorescence titration
Excerpt: In situ pKa measurements were made using the pH sensitive fluorescent probe TNS, using a modification of the approach previously published in Bailey, A. L. and Cullis, P. R., Biochemistry 33:12573-12580 (1994).
Titrations of surface charge as a function of pH can then be used to determine the apparent pKa (hereafter referred to as pKa) of constituent lipids (Cullis, P. R., et al., Chem Phys Lipids 40:127-144 (1986)).

[4] = test system: Factor VII (FVII); conditions: for ED50: siRNA dose reducing serum FVII protein by 50% at 24 h, PFV LN-siRNA 40/10/40/10
Excerpt: It is well established that in vivo RNAi silencing of specific hepatocyte proteins can be achieved following intravenous (i.v.) administration of siRNA's encapsulated in, or associated with, select nanoparticles designed for intracellular delivery. […] In this Example, rational design in combination with in vivo screening were applied to systematically modify the structure of DLinDMA and identify molecular features that enhance or reduce cationic lipid potency. More than 30 lipids were synthesized and incorporated into nucleic acid-lipid particles, i.e., lipid nanoparticles (LN) encapsulating an siRNA (LN-siRNA) targeting Factor VII (FVII), a blood clotting component synthesized and secreted by hepatocytes that is readily measured in serum. LN-siRNA systems were prepared using the same process, lipid molar ratios and particle size to minimize effects on activity resulting from formulation characteristics other than the cationic lipid. Each formulation was administered as a single bolus injection over a range of doses enabling an estimate of the siRNA dose required to reduce FVII serum protein concentrations by 50% after 24 h (ED50).
FVII activity was evaluated in FVII siRNA-treated animals at 24 hours after intravenous (bolus) injection in C57BL/6 mice or 48 hours after intravenous (bolus) injection in SD rats. Six to 8 week old, female C57Bl/6 mice were obtained from Charles River Laboratories and acclimated for one week prior to use in studies. Animals were held in a pathogen-free environment and all procedures involving animals were performed in accordance with the guidelines established by the Canadian Council on Animal Care.
LN-siRNA systems containing Factor VII siRNA were diluted to the appropriate concentrations in sterile phosphate buffered saline immediately prior to use, and the formulations were administered intravenously via the lateral tail vein in a total volume of 10 ml/kg. After 24 h, animals were anaesthetised with Ketamine/Xylazine and blood was collected by cardiac puncture and processed to serum (Microtainer Serum Separator Tubes; Becton Dickinson, Franklin Lakes, N.J., USA). Serum was tested immediately or stored at −70° C. for later analysis for serum Factor VII levels.
FVII was measured using a commercially available kit (Biophen FVII Kit™; Aniara Corp., Mason, Ohio), following the manufacturer's instructions at a microplate scale. FVII reduction was determined against untreated control animals, and the results were expressed as % Residual FVII. Five dose levels (0.1, 0.3, 0.5, 1.0, and 3.0 mg/kg) were typically used.
Serum Factor VII levels were determined using the colorimetric Biophen VII assay kit (Anaira, USA). Briefly, serially diluted pooled control serum (200%-3.125%) and appropriately diluted plasma samples from treated animals were analyzed using the Biophen VII kit according to manufacturer's instructions in 96-well, flat bottom, non-binding polystyrene assay plates (Corning, Corning, N.Y.) and absorbance at 405 nm was measured. A calibration curve was generated using the serial diluted control serum and used to determine levels of Factor VII in serum from treated animals.
Initial studies were performed in eight to 10 week old, female C57BL/6 mice in two stages. In the first stage, the activity associated with the benchmark lipid DLinDMA was compared to the activity associated with modified forms of DLinDMA.

[5] = assay type: in vivo; conditions: rats
Protocol: (§1) Data was recorded as % Change in Body Weight.
Histopathology results for livers obtained from rats treated with 91 mg/kg (“5” mg/kg) were normal.

[6] = test system: transthyretin (TTR); test: TTR silencing by KC2-SNALP-formulated siTTR in non-human primates (liver TTR mRNA); assay type: in vivo, Cynomolgus monkeys; conditions: Macaca fascicularis, iv, single 15 minute i.v. infusion; 48 hours post-administration
Excerpt: FIGS. 9A-B illustrate the efficacy of KC2-SNALP formulations. FIG. 9A is a graph showing the improved efficacy of KC2-SNALP versus a DLin-K-C2-DMA PFV formulation in mice. The in vivo efficacy of KC2-SNALP (◯) was compared to that of the un-optimized DLin-KC2-DMA PFV formulation (●) in the mouse FVII model. Data points are expressed as a percentage of PBS control animals and represent group mean (n=5)±s.d. FIG. 9B depicts the efficacy of KC2-SNALP in non-human primates. Cynomolgus monkeys (n=3 per group) received either 0.03, 0.1, 0.3 or 1 mg/kg siTTR, or 1 mg/kg siApoB formulated in KC2-SNALP or PBS as 15 minute intravenous infusions (5 mL/kg) via the cephalic vein. Animals were sacrificed at 48 hours post-administration. TTR mRNA levels relative to GAPDH mRNA levels were determined in liver samples. Data points represent group mean±s.d. *=P<0.05; **=P<0.005.
Given the promising activity and safety profile observed in rodents in the studies described in Example 17, studies were performed in non-human primates to investigate the translation of DLin-KC2-DMA activity in higher species. For these studies, transthyretin (TTR), a hepatic gene of high therapeutic interest, was targeted. […]
Tissues were harvested at 48 hours post-administration, and liver mRNA levels of TTR were determined. […]

[7] = Tolerability of DLin-K-C2-DMA lipid particles in mice; assay type: in vivo
Protocol: as §1

CCCCC/C=C\C/C=C\CCCCCCCCC1(CCCCCCCC/C=C\C/C=C\CCCCC)OCC(CCN(C)C)O1 (centres unmarked) [DLin-K-C2-DMA, 2,2-Dilinoleyl-4-(2-dimethylaminoethyl)-[1,3]-dioxolane]
fold greater activity than the DLin-K-DMA formulation [1]: 10-20 fold
TBH lower than that for DLinDMA [2]: 7 °C
HII transition temperature ([2]; equimolar with DSPS, pH 4.8, 31P NMR and DSC): 20 °C
pKa [3]: 6.4
pKa ([3]; nucleic acid-lipid particles containing the cationic lipid): 6.4
ED50 ([4]; Table 6): ~0.1 mg/kg
FVII ED50 ([4]; Table 11): ~0.1 mg/kg
fold more potent / greater activity than DLin-K-DMA ([4]; mice): 4 fold and 2-3 fold
fold difference in in vivo activity between DLin-K-C2-DMA and DLin-K-C4-DMA ([4]; mouse, in vivo): > 30 fold
fold more potent than the DLinDMA benchmark ([4]; reducing serum FVII protein, mouse, head-to-head): 10 fold
siRNA dose as low as which in vivo activity was exhibited ([4]; rodents): 0.01 mg/kg
ED50 [4]: ~0.1 mg/kg
encapsulated siRNA sufficient to knockdown serum FVII protein by 50% ([4]; single i.v. bolus to a mouse, within 24 h, 40 mole % cationic lipid): ~100 picomoles
lipid dose as low as which significant increases in ALT/AST were seen [5]: 182 mg/kg lipid
liver histopathology ([5]; 91 mg/kg): normal
clinical observations and liver appearance ([5]; 91 mg/kg lipid): appeared normal and had normal livers
liver histopathology ([5]; 182 mg/kg): mild to moderate hepatocellular necrosis, centrilobular, and hepatocellular vacuolization
clinical observations ([5]; 182 mg/kg lipid): slower movement and a scruffy coat
clinical observations and liver appearance ([5]; 364 mg/kg lipid): hunched, slower movement, quinting eyes, scruffy coats, piloerection, red/orange uring, with pale and some mottling livers
mortality ([5]; 364 mg/kg lipid): one died
body weight ([5]; 24 hours after i.v. treatment): dose-dependent loss of weight
ED50 [6]: 0.3 mg/kg
body weight ([7]; mice): dose-dependent loss of weight
increase in ALT-AST ([7]; mice, approximately 1100 mg/kg lipid): greater than 10 fold
clinical signs ([7]; mice, except at greater than 1300 mg/kg (hunched, slower movement, scruffy coat)): no obvious clinical signs
mortality ([7]; mouse, in vivo): no mice died
